Assay results taken from patent publication US5922891A, “2-substituted 1,8-dihydroxy-9(10H)-anthracenone pharmaceuticals” (priority 1997, dated 1999).

Tests used:
[1] = test system: HaCaT cells; experiment: Antiproliferative activity against HaCaT cells (human keratinocyte cell line); type: cell-based; conditions: 48 h, read-out: AA IC50 (antiproliferative activity)
Procedure: HaCaT cells were grown in Dulbecco's modified Eagle's medium (DMEM, No. 041-11954A, Gibco) supplemented with 10% fetal calf serum, penicillin (100 U/mL), and streptomycin (100 μg/mL) in a humidified incubator containing 8% CO2 at 37° C. Cells (2.5·10^4 /1.1 ml per well) were seeded on 24-well multidishes and grown in DMEM. After 24 hours of growth, the medium was replaced with fresh medium and a test compound (0.1-5 μM) was added from freshly made stock solutions, which were prepared in DMSO and diluted with DMEM. The final concentration of DMSO in the culture medium was 0.2%. Controls were performed using DMSO or medium alone. Forty-eight hours after addition of a test compound to the culture, the medium was removed and each well was rinsed with phosphate-buffered saline (PBS, 100 μL). The cells were then incubated with sterile 0.5% trypsin, 0.2% EDTA in PBS for 20 minutes at 37° C. The detached cells from each well were suspended in DMEM and dispersed as single cells by gentle pipetting through an Eppendorf pipette. Cell growth was determined directly by counting the keratinocytes on a Neubauer counting chamber using phase contrast microscopy. Inhibition of cell proliferation was calculated by a comparison of the mean value of the test compound (N=3) with the control (N=6-8) activity: (1-test compound/control)×100.

[2] = Deoxyribose degradation as a measure of hydroxyl radical formation; type: biochemical; conditions: 75 μM test compound; controls < 0.1
Procedure: ^c Deoxyribose degradation as a measure of hydroxyl radical formation
Indicated values are μmoles of malondialdehyde per mmole of deoxyribos
released by 75 μM test compound (controls < 0.1).
Degradation of deoxyribose provides a measurement of the amount of hydroxyl radical formation caused by the test compounds. The assay used to determine degradation of 2-deoxy-D-ribose followed generally the procedures of Gutteridge, J. M. C., Biochem. J., 224: 761-767 (1984) and Laughton, et al., Biochem. Pharmacol., 38: 2859-2865 (1989). The following reagents were added to glass tubes in the order and at the final concentrations listed. 0.3 mL kH2 PO4 --KOH buffer, pH 7.4 (30 mM), 0.2 ml double distilled H2 O, 0.2 ml 2-deoxy-D-ribose (2 mM), 0.2 ml FeCl3.6H2 O (0.1 mM), 0.1 ml 2-substituted anthracenone ([…]). Stock solutions of each of the 2-substituted anthracenone compounds were made up fresh before use. Appropriate blanks and controls using an acetronitrile vehicle were performed.
Final reaction volumes were standardized to 1.0 ml. The reaction mixtures were incubated for 2 hours at 37° C. in a shaking water bath at 50 rpm. 1 ml of 2.8% (w/v) trichloracetic acid and 1 ml of 1% (w/v in 0.05 N NaOH) 2-thiobarbituric acid (TBA) were added, and the samples were heated at 100° C. for 15 minutes and then cooled in an ice bath (5 minutes). 2 ml of each reaction mixture was treated with 0.05 ml of 36% (w/v) HCl and 2 of 1-butanol, followed by vigorous shaking with a vortex mixer (Heidolph) for 15 seconds. The organic layer was separated by centrifugation at 3000 rpm (15 minutes) and absorbance at 532 nm was measured against butanol. Calibration was performed using a malondialdehyde (MDA) standard prepared by hydrolysis of 1,1,3,3-tetraethoxypropane (Gutteridge, J. M. C., Anal. Biochem., 69: 518-526 (1975). TBA reactive material was expressed in terms of μmol MDA per μmol deoxyribose. The results of the assay are provided in Table I.

[3] = biological target: T1, 5-LO in bovine PMNL (Bos taurus, UniProt F1MQ78); experiment: Inhibition of 5-lipoxygenase (5-HETE and LTB4 biosynthesis) in Ca-ionophore-stimulated bovine PMNL; type: cell-based; conditions: N = 3 or more
T1 construct: The purified PMNLs were suspended at a concentration of; endogenous in cells; host or cells: polymorphonuclear leukocytes isolated from bovine blood
T1 sequence (F1MQ78 1-674): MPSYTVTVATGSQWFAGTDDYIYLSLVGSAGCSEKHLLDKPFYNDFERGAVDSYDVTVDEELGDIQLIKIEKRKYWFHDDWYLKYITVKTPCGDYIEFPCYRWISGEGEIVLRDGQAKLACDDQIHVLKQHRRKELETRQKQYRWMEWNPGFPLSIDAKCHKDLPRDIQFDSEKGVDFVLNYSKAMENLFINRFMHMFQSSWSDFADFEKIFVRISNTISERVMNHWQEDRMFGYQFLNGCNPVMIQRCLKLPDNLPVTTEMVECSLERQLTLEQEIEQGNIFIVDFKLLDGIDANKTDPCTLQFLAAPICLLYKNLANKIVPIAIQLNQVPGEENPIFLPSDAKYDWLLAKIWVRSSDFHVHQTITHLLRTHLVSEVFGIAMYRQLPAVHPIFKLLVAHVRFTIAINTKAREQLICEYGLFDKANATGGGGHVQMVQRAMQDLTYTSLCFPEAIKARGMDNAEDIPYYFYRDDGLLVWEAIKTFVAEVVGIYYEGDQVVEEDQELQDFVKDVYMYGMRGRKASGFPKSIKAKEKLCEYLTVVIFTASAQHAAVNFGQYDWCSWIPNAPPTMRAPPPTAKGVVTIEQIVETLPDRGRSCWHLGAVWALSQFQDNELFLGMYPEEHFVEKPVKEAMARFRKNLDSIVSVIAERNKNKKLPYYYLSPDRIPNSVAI
Procedure: Briefly, PMNLs were prepared from sodium EDTA-anticoagulated bovine blood, essentially as described by Walstra, P. et al., (Biochem. Biophys. Acta, 795:499-503 (1984)). Contaminating platelets were removed by repeated centrifugations at 100 g for 20 minutes. […] Cell counts were conducted with a Sysmex micro cell counter CC-130. Preincubation was performed with 2.4 ml of the suspension and 10 μl of a DMSO stock solution of test compounds at the desired concentrations in phosphate buffered saline (PBS) or vehicle control (DMSO at final concentration of 0.4%) for 15 minutes at 37° C. in a shaking water bath at 50 rpm. […] The incubation mixture was held on ice bath for 20 minutes and then centrifuged at 4000 g for 5 minutes at 0° C. The supernatant was diluted with 5 ml of water and passed through a prewashed (10 ml of methanol and 5 ml of water, sequentially) octadecylsilane reversed phase cartridge (Baker). The eicosanoids were eluted with 3 ml of methanol, diluted with 3 ml of water and subjected to reversed phase HPLC analysis using a 250×4 mm column packed with Nucleosil C18 (7 μm particles; Bischoff, Leonberg, Germany). The isocratic elution conditions of LTB4 were tetrahydrofuran (THF)/methanol/water/acetic acid (25+30+45+0.1), adjusted to pH 5.5 with concentrated NH3, at a flow rate of 0.9 ml/min (Kontron 420 pump), monitored at 280 nm with a Kontron 735 LC UV detector. 5-HETE was monitored at 232 nm using methanol/water/acetic acid (77+23+0.1), pH 5.5 and a flow rate 1.0 ml/min. Data were recorded on a MacLab data acquisition system (WissTech, Germany) and analysis was performed using the application Peaks on an Apple Macintosh Quadra 700 computer. Integrated areas of the peaks were compared to a PGB2 internal standard and to external standards of authentic samples. Molar absorption coefficients of Samuelsson et al., Borgeat, P. and B. Samuelsson, (Proc. Natl. Acad. Sci. USA, 76:2148-2152 (1979)), were used for making calculations. Inhibition was calculated by a comparison of the mean value of test compound (n=3) with control (n=6-8) activity: (1-test compound/control)×100.
See Walstra, P. et al., Biochem Biophys. Acta, 795:499-503 (1984); and Dannhardt et al. J. Pharm. Pharmacol., 44:419-424 (1992). […] (Schroder, J. M., J. Invest. Dermatol., 87:624-629 (1986); Tanzer, et al., Arch. Pharm. (Weinheim), 324:841-846 (1991)).

CC(C(=O)O)c1ccc2c(c1O)C(=O)c1c(O)cccc1C2 (stereo not shown) [VIIA, 2-(9,10-Dihydro-1,8-dihydroxy-9-oxo-2-anthracene) propionic acid]
IC50 [1]: > 5000 nM

CC(C)C(C(=O)NO)c1ccc2c(c1O)C(=O)c1c(O)cccc1C2 (stereo not shown) [VIIIC, N-Hydroxy-2-(9,10-dihydro-1,8-dihydroxy-9-oxo-2-anthracene)-3-methylbutanamide]
IC50 [1]: 1500 nM
DD (deoxyribose degradation, malondialdehyde released) [2]: 1.66 ± 0.08 μmol of MDA/mmol

COC(=O)c1ccc(Cc2ccc3c(c2O)C(=O)c2c(O)cccc2C3)cc1 [XIB, Methyl 4-[(9,10-Dihydro-1,8-dihydroxy-9-oxo-2-anthracene)methyl]benzoate, reference compound]
IC50 [3]: > 30000 nM

O=C(O)c1ccc(Cc2ccc3c(c2O)C(=O)c2c(O)cccc2C3)cc1 [XIA, 4-[(9,10-Dihydro-1,8-dihydroxy-9-oxo-2-anthracene)methyl]benzoic acid, reference compound]
IC50 [3]: 2000 nM

CN(O)C(=O)c1ccc(Cc2ccc3c(c2O)C(=O)c2c(O)cccc2C3)cc1 [XID, N-Hydroxy-N-methyl-4-[(9,10-dihydro-1,8-dihydroxy-9-oxo-2-anthracene)methyl]benzamide]
DD (deoxyribose degradation, malondialdehyde released) [2]: 0.97 ± 0.03 μmol of MDA/mmol

COC(=O)Cc1ccc2c(c1O)C(=O)c1c(O)cccc1C2 [IB, Methyl 9,10-Dihydro-1,8-dihydroxy-9-oxo-2-anthracenacetate]
IC50 [3]: > 30000 nM

O=C1c2c(O)cccc2Cc2ccc(C(Cc3ccccc3)C(=O)NO)c(O)c21 (stereo not shown) [IXC, N-Hydroxy-2-(9,10-dihydro-1,8-dihydroxy-9-oxo-2-anthracene)-3-phenylpropionamide]
IC50 [1]: 1500 nM

O=C(O)c1ccc(C(=O)c2ccc3c(c2O)C(=O)c2c(O)cccc2C3)cc1 [XIIA, 4-[(9,10-Dihydro-1,8-dihydroxy-9-oxo-2-anthracene)oxomethyl]benzoic acid]
IC50 [1]: > 5000 nM
DD (deoxyribose degradation, malondialdehyde released) [2]: 1.80 ± 0.14 μmol of MDA/mmol

CN(O)C(=O)C(Cc1ccccc1)c1ccc2c(c1O)C(=O)c1c(O)cccc1C2 (stereo not shown) [IXD, N-Hydroxy-N-methyl-2-(9,10-dihydro-1,8-dihydroxy-9-oxo-2-anthracene)-3-phenylpropionamide]
IC50 [1]: 900 nM
DD (deoxyribose degradation, malondialdehyde released) [2]: 1.68 ± 0.13 μmol of MDA/mmol

O=C(CCCc1ccc2c(c1O)C(=O)c1c(O)cccc1C2)NO [IIIC, N-Hydroxy-4-(9,10-dihydro-1,8-dihydroxy-9-oxo-2-anthracene)butanamide]
IC50 [1]: 1500 nM
DD (deoxyribose degradation, malondialdehyde released) [2]: 1.46 ± 0.02 μmol of MDA/mmol

COC(=O)CCc1ccc2c(c1O)C(=O)c1c(O)cccc1C2 [IIB, Methyl 3-(9,10-Dihydro-1,8-dihydroxy-9-oxo-2-anthracene) propionate]
IC50 [3]: > 30000 nM

O=C(CCc1ccc2c(c1O)C(=O)c1c(O)cccc1C2)NO [IIC, N-Hydroxy-3-(9,10-dihydro-1,8-dihydroxy-9-oxo-2-anthracene)propionamide]
IC50 [1]: 1300 nM
DD (deoxyribose degradation, malondialdehyde released) [2]: 1.67 ± 0.31 μmol of MDA/mmol

O=C(O)CCc1ccc2c(c1O)C(=O)c1c(O)cccc1C2 [IIA, 3-(9,10-Dihydro-1,8-dihydroxy-9-oxo-2-anthracene) propionic acid, reference compound]
IC50 [1]: > 5000 nM
DD (deoxyribose degradation, malondialdehyde released) [2]: 2.67 ± 0.23 μmol of MDA/mmol

COC(=O)C(C)c1ccc2c(c1O)C(=O)c1c(O)cccc1C2 (stereo not shown) [VIIB, Methyl 2-(9,10-Dihydro-1,8-dihydroxy-9-oxo-2-anthracene) propionate]
IC50 [3]: > 30000 nM

O=C(O)CCCc1ccc2c(c1O)C(=O)c1c(O)cccc1C2 [IIIA, 4-(9,10-Dihydro-1,8-dihydroxy-9-oxo-2-anthracene) butanoic acid, reference compound]
IC50 [1]: > 5000 nM
DD (deoxyribose degradation, malondialdehyde released) [2]: 2.61 ± 0.38 μmol of MDA/mmol

O=C(O)Cc1ccc2c(c1O)C(=O)c1c(O)cccc1C2 [IA, 9,10-Dihydro-1,8-dihydroxy-9-oxo-2-anthracenacetic acid, reference compound]
IC50 [1]: > 5000 nM
DD (deoxyribose degradation, malondialdehyde released) [2]: 3.74 ± 0.23 μmol of MDA/mmol

O=C(Cc1ccc2c(c1O)C(=O)c1c(O)cccc1C2)NO [IC, N-Hydroxy-(9,10-dihydro-1,8-dihydroxy-9-oxo-2-anthracene)acetamide]
DD (deoxyribose degradation, malondialdehyde released) [2]: 1.89 ± 0.14 μmol of MDA/mmol

O=C(NO)c1ccc(Cc2ccc3c(c2O)C(=O)c2c(O)cccc2C3)cc1 [XIC, N-Hydroxy-4-[(9,10-dihydro-1,8-dihydroxy-9-oxo-2-anthracene)methyl]benzamide]
IC50 [1]: 1400 nM

O=C1c2c(O)cccc2Cc2ccc(C(Cc3ccccc3)C(=O)O)c(O)c21 (stereo not shown) [IXA, 2-(9,10-Dihydro-1,8-dihydroxy-9-oxo-2-anthracene)-3-phenylpropionic acid]
IC50 [1]: > 5000 nM
DD (deoxyribose degradation, malondialdehyde released) [2]: 3.25 ± 0.45 μmol of MDA/mmol
